Source: US4093720A, “Novel-17-spirosultines their corresponding hydroxy acids and compositions thereof” (Roussel Uclaf, priority 1976, dated 1978)

How the values were obtained:
[1] = tested on: activity of 1 μg/kg of aldosterone monoacetate; test: Antialdosterone activity in surrenalectomized rats; assay type: in vivo; settings: male Sprague-Dawley surrenalectomized rats; oral dose 5 mg/kg; 1 μg/kg aldosterone monoacetate s.c.; 4 hours urine collection
Experimental: Male rats of the Sprague-Dawley strain weighing about 180 g were surrenalectomized and at that moment, the rats received with drinking water a physiological serum. […] At the end of 47 hours, the rats received orally either the B isomer of (17R) 6β, 7β-methylene-2'-oxidospiro-(Δ^4 -androstene-17,5'-[1',2']-oxathiolane)-3-one (product A), the B isomer of (17R) 6α, 7α-methylene-2'-oxidospiro-(Δ^4 -androstene-17,5'-[1',2']-oxathiolane)-3-one (product B) or the B isomer of (17R) 7α-methyl-2'-oxidospiro-(Δ^4 -androstene-17,5'-[1',2']-oxathiolane)-3-one (product C) in the form of a solution or suspension in 0.25% carboxymethylcellulose. One hour after the said oral administration, the animals received a hydrosaline overdose by intraperitoned administration of 5 ml of a […] physiological serum per 100 g of body weight and 1 μg/kg of a 2.5% alcoholic solution of aldosterone monoacetate by subcutaneous administration. The animals were placed in diuresis cages without food or drink for 4 hours and at the end of 4 hours, a forced miction was caused by pressure on the bladder. The volume of urine was brought to 50 ml and the amount of sodium and potassium was determined with an autoanalyser.

androgen receptors = target: T1, androgen receptors (Rattus norvegicus, UniProt P15207); test: Affinity for androgenic receptors (hormonal receptor test, rat prostate cytosol, tritiated product R); assay type: binding, rats; settings: for affinity for androgen receptors (in words): conclusion from Table II; for RLA (relative affinity = 100 × CT/CX): prostate cytosol of castrated male rats, tritiated 17α-methyl-Δ4,9,11-estratriene-17β-ol-3-one, 0° C, 2 hours, testosterone = 100
T1 construct: the prostate was removed from male rats castrated 24 hours earlier and was homogenized in a buffer; from tissue; host or cells: prostate cytosol (105,000g supernatant) of male rats castrated 24 hours earlier
T1 sequence (P15207 1-902): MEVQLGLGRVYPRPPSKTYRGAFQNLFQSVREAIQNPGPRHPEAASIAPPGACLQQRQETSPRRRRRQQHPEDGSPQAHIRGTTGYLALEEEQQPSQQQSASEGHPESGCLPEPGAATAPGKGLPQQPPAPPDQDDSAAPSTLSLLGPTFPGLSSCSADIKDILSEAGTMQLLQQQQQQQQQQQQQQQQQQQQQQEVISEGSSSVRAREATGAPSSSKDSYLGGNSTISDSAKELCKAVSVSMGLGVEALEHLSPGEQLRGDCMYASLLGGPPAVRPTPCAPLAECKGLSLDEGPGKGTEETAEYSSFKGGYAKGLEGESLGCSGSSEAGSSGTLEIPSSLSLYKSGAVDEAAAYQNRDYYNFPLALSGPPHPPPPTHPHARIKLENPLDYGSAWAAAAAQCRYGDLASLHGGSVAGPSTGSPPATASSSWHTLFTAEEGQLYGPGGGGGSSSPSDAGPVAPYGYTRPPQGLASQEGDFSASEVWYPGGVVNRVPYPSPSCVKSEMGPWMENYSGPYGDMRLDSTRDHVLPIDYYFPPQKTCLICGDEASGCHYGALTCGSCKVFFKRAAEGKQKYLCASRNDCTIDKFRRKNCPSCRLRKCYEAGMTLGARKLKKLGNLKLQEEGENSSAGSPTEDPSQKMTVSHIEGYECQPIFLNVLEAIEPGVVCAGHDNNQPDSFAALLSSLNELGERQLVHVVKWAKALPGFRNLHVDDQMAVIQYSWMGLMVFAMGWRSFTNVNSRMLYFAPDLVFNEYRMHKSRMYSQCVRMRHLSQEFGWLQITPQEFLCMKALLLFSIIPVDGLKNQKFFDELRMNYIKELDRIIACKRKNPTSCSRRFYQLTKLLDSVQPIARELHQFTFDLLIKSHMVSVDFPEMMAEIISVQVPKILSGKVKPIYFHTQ
Experimental: The test used was the hormonal receptor test described by Raynaud et al [J. Ster. Biochem., Vol. 6 (1975), p. 615-622] in which the prostate was removed from male rats castrated 24 hours earlier and was homogenized in a buffer: 10 millimole tromethamine, saccharose 0.25M, HCl for pH of 7.4. The homogenate was centrifuged at 105,000g for one hour and the surnageant liquid or "cytosol" was then adjusted to obtain a dilution of 1/5 (weight/volume). […] At the end of 2 hours, the radioactivity of tritiated product tied to the receptor was determined by the adsorption technique of carbondextran (1.25% to 0.625%).
B/T max. is the percentage of tritiated product R bound when no product was added and B/T min. is the percentage of tritiated product R bound when the mazimum quantity of cold product R is added. The intersections of line I50 and the curves permit the determination of the CT and CX values.

Row | SMILES | % inhibition of the activity of aldosterone monoacetate against the urinary sodium/potassium ratio [1] | affinity for androgen receptors (in words) (androgen receptors) | RLA (relative affinity = 100 × CT/CX) (androgen receptors)
1 | C[C@]12CCC(=O)C=C1[C@@H]1C[C@@H]1[C@@H]1[C@@H]2CC[C@@]2(C)[C@H]1CC[C@@]21CCS(=O)O1 (single isomer, unassigned) [product A] | 25% | little or no affinity | 0
2 | C[C@]12CCC(=O)C=C1[C@H]1C[C@H]1[C@@H]1[C@@H]2CC[C@@]2(C)[C@H]1CC[C@@]21CCS(=O)O1 (single isomer, unassigned) [product B] | 19% |  | 
3 | C[C@@H]1CC2=CC(=O)CC[C@]2(C)[C@H]2CC[C@@]3(C)[C@@H](CC[C@@]34CCS(=O)O4)[C@H]12 (single isomer, unassigned) [product C] | 22% | little or no affinity | 3.6
